Source: patent US9522920B2, “Bromodomain inhibitors and uses thereof” (Constellation Pharmaceuticals, Inc., priority 2010, dated 2016)
Like-named read-outs stand apart in the source and are kept apart here.

Key:
BRD4(BD1) = target: T1, BRD4(BD1) (Homo sapiens, UniProt O60885); experiment: BRD4 AlphaLisa binding assay (Alphascreen)
T1 construct: His; made in house
Procedure, shortened: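 BRD4(BD1) (30 nM) incubated 20 min at room temperature with peptide (200 nM) and compound in 40 mM HEPES pH 7.0, 40 mM NaCl, 1 mM DTT, 0.01% BSA, 0.008% Brij-35, 1.2% DMSO.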

MYC mRNA [1] = experiment: cMyc RNA quantification assay (QuantiGene) in Raji cells; format: cell-based; conditions: Table 7, Raji (Burkitt's lymphoma) cells, 4 h
Experimental: (§1) MV4:11 (AML) or Raji (Burkitt's lymphoma) cells were seeded in a 96-well plate and incubated in the presence of various concentrations of compounds for 4 h. Relative mRNA levels were quantitated by using QuantiGene 2.0 assay (Affymetrix) according to the manufacturer's recommendation. Signals were detected by using an Envision plate reader (Perkin-Elmer). Biological duplicates were averaged and normalized to vehicle (DMSO) control to calculate percent MYC mRNA levels.

IL-6 secretion = experiment: Cell-based IL-6 quantification assay (ELISA, Mesoscale) in LPS-stimulated THP-1 cells; conditions: THP-1 cells, 16 h, read-out: IL6
Procedure, shortened: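 THP-1 cells stimulated with LPS at 4 μg/mL final and exposed to compounds for 16 h. Supernatant IL-6 measured by Mesoscale ELISA and normalized to CellTiter-Glo cell content. Percent inhibition derived from that ratio.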

MYC mRNA [2] = experiment: cMyc RNA quantification assay (QuantiGene) in MV4:11 cells; format: cell-based; conditions: read-out: MYC-MV411
Experimental: as §1

[3] = Table 6, BRD4(BD1) 30 nM, H4-tetraacetyl peptide 200 nM, read-out: BRD4 Alphascreen IC50
[4] = Table 7, LPS 4 μg/mL, normalised to CellTiter-Glo
[5] = Table 7, MV4:11 (AML) cells, 4 h
[6] = Table 14, BRD4 AlphaLisa Binding Assay, read-out: Alpha screen
[7] = Homo sapiens, THP-1, 16 h, Table 14, LPS
[8] = Homo sapiens, MV4-11, 4 h, Table 14, MV4:11 cells

Compound	IC50 (BRD4(BD1); [6]) [nM]	IC50 (IL-6 secretion; [7]) [nM]	IC50 (MYC mRNA [2]; [8]) [nM]	further results
Cc1cccc2c1C(c1ccc(C#N)cc1)=N[C@@H](CC(N)=O)c1onc(C)c1-2 [Compound 130]	–	–	–	IC50 (BRD4(BD1); [3]): < 500 nM; IC50 (MYC mRNA [1]): < 500 nM; IC50 (IL-6 secretion; [4]): < 500 nM; IC50 (MYC mRNA [2]; [5]): < 500 nM
Cc1cccc2c1C(c1ccc(OC(F)(F)F)cc1)=N[C@@H](CC(N)=O)c1onc(C)c1-2 [Compound 136]	–	–	–	IC50 (BRD4(BD1); [3]): < 500 nM; IC50 (MYC mRNA [1]): < 500 nM; IC50 (IL-6 secretion; [4]): < 500 nM; IC50 (MYC mRNA [2]; [5]): < 500 nM
Cc1noc2c1-c1cccc(Cl)c1C(c1ccc(Cl)cc1)=N[C@H]2CC(N)=O [Compound 139]	–	–	–	IC50 (BRD4(BD1); [3]): < 500 nM; IC50 (MYC mRNA [1]): < 500 nM; IC50 (IL-6 secretion; [4]): < 500 nM; IC50 (MYC mRNA [2]; [5]): < 500 nM
COCCNC(=O)C[C@@H]1N=C(c2ccc(Cl)cc2)c2ccccc2-c2c(C)noc21 [Compound 145]	–	–	–	IC50 (BRD4(BD1); [3]): < 500 nM; IC50 (MYC mRNA [1]): < 500 nM; IC50 (IL-6 secretion; [4]): < 500 nM; IC50 (MYC mRNA [2]; [5]): < 500 nM
Cc1noc2c1-c1ccnc(F)c1C(c1ccc(Cl)cc1)=N[C@H]2CC(N)=O [Compound 180, 2-((4S)-6-(4-Chlorophenyl)-7-fluoro-1-methyl-4H-isoxazolo[5,4-c]pyrido[4,3-e]azepin-4-yl)acetamide]	–	–	–	IC50 (MYC mRNA [1]; Homo sapiens): 500 to 1000 nM; IC50 (IL-6 secretion; Homo sapiens, THP-1, 16 h, Table 7, LPS 4 μg/mL, normalised to CellTiter-Glo): < 500 nM; IC50 (MYC mRNA [2]; Homo sapiens, MV4-11, 4 h, Table 7, MV4:11 (AML) cells): 500 to 1000 nM
Cc1noc2c1-c1ccc(C#N)cc1C(c1ccc(Cl)cc1)=N[C@H]2CC(N)=O [Compound 224]	< 500	< 500	< 500	–
Cc1noc2c1-c1nc(Cl)ccc1C(c1ccc(Cl)cc1)=NC2 [Compound 227, 2-Chloro-5-(4-chlorophenyl)-10-methyl-7H-isoxazolo[5,4-c]pyrido[2,3-e]azepine]	> 1000	> 1000	> 1000	–
Cc1noc2c1-c1ccnc(Oc3ccccc3)c1C(c1ccc(Cl)cc1)=NC2 [Compound 229, 6-(4-Chlorophenyl)-1-methyl-7-phenoxy-4H-isoxazolo[5,4-c]pyrido[4,3-e]azepine]	> 1000	> 1000	> 1000	–
Cc1noc2c1-c1ccc(Cl)cc1C(c1ccc(F)cc1)=N[C@H]2C [Compound 230]	< 500	< 500	500 to 1000	–
Cc1noc2c1-c1ccc(-c3ccc(C(=O)O)cc3)cc1C(c1ccc(F)cc1)=N[C@H]2CC(N)=O [Compound 234]	< 500	500 to 1000	500 to 1000	–
Cc1noc2c1-c1ccccc1C(c1ccc(C(C)(C)O)cc1)=N[C@H]2CC(N)=O [Compound 235]	< 500	< 500	< 500	–
Cc1noc2c1-c1sc(C)c(C)c1C(c1ccc(C(C)(C)O)cc1)=NC2CC(N)=O (stereo not shown) [Compound 236]	< 500	< 500	< 500	–
Cc1noc2c1-c1ccc(-c3ccc(C(=O)O)cc3)cc1C(c1ccc(F)cc1)=N[C@H]2C [Compound 237]	< 500	< 500	< 500	–
Cc1noc2c1-c1ccccc1C(c1ccc(F)cc1)=NC2C(F)(F)F (stereo not shown) [Compound 238, 6-(4-fluorophenyl)-1-methyl-4-(trifluoromethyl)-4H-benzo[c]isoxazolo[4,5-e]azepine]	> 1000	> 1000	> 1000	–
COc1ccc2c(n1)C(c1ccc(Cl)cc1)=NCc1onc(C)c1-2 [Compound 242, 6-(4-Chlorophenyl)-8-methoxy-1-methyl-4H-isoxazolo[5,4-c]pyrido[3,2-e]azepine]	500 to 1000	> 1000	> 1000	–
CCNC(=O)NC1N=C(c2ccc(Cl)cc2)c2ccccc2-c2c(C)noc21 (stereo not shown) [Compound 245, 1-(6-(4-chlorophenyl)-1-methyl-4H-benzo[c]isoxazolo[4,5-e]azepin-4-yl)-3-ethylurea]	< 500	< 500	< 500	–
Cc1noc2c1-c1ccc(N3CCCC3)nc1C(c1ccc(Cl)cc1)=NC2 [Compound 247, 6-(4-Chlorophenyl)-1-methyl-8-(pyrrolidin-1-yl)-4H-isoxazolo[5,4-c]pyrido[3,2-e]azepine]	< 500	< 500	500 to 1000	–
Cc1noc2c1-c1ccc(OC(C)C)cc1C(c1ccc(Cl)cc1)=N[C@H]2CC(N)=O [Compound 249]	< 500	–	–	IC50 (IL-6 secretion; Table 14, LPS): < 500 nM; IC50 (MYC mRNA [2]; Table 14, MV4:11 cells, 4 h): < 500 nM

More lines, main results first:

IC50 (BRD4(BD1); [6]) [nM]	IC50 (IL-6 secretion; [7]) [nM]	IC50 (MYC mRNA [2]; [8]) [nM]	Compound	further results
< 500	< 500	< 500	Cc1noc2c1-c1ccnc(N)c1C(c1ccc(Cl)cc1)=N[C@H]2CC(N)=O [Compound 222, 2-((4S)-7-Amino-6-(4-chlorophenyl)-1-methyl-4H-isoxazolo[5,4-c]pyrido[4,3-e]azepin-4-yl)acetamide]	–
> 1000	> 1000	> 1000	Cc1noc2c1-c1ccccc1C(c1ccc(Cl)cc1)=N[C@H]2CC(C)(C)O [Compound 223, 1-((4S)-6-(4-chlorophenyl)-1-methyl-4H-benzo[c]isoxazolo[4,5-e]azepin-4-yl)-2-methylpropan-2-ol]	–
< 500	< 500	< 500	CCOC(=O)NC1N=C(c2ccc(Cl)cc2)c2ccccc2-c2c(C)noc21 (stereo not shown) [Compound 225, ethyl (6-(4-chlorophenyl)-1-methyl-4H-benzo[c]isoxazolo[4,5-e]azepin-4-yl)carbamate]	–
< 500	< 500	< 500	Cc1noc2c1-c1ccccc1C(c1ccc(C3(O)CC3)cc1)=N[C@H]2CC(N)=O [Compound 226]	–
> 1000	> 1000	> 1000	Cc1noc2c1-c1nc(N)ccc1C(c1ccc(Cl)cc1)=NC2 [Compound 228, 5-(4-Chlorophenyl)-10-methyl-7H-isoxazolo[5,4-c]pyrido[2,3-e]azepin-2-amine]	–
< 500	< 500	< 500	Cc1noc2c1-c1ccc(-c3ccc(N)nc3)cc1C(c1ccc(F)cc1)=N[C@H]2C [Compound 231]	–
< 500	500 to 1000	500 to 1000	Cc1noc2c1-c1ccccc1C(c1ccc(C(C)(C)N)cc1)=N[C@H]2CC(N)=O [Compound 233]	–
< 500	< 500	< 500	Cc1noc2c1-c1ccc(O)cc1C(c1ccc(Cl)cc1)=N[C@H]2CC(N)=O [Compound 239, 2-((4S)-6-(4-chlorophenyl)-8-hydroxy-1-methyl-4H-benzo[c]isoxazolo[4,5-e]azepin-4-yl)acetamide]	–
> 1000	> 1000	> 1000	Cc1noc2c1-c1ccc(Cl)nc1C(c1ccc(Cl)cc1)=NC2 [Compound 240, 8-Chloro-6-(4-chlorophenyl)-1-methyl-4H-isoxazolo[5,4-c]pyrido[3,2-e]azepine]	–
< 500	< 500	< 500	CNc1ccc2c(n1)C(c1ccc(Cl)cc1)=NCc1onc(C)c1-2 [Compound 241, 6-(4-Chlorophenyl)-N,1-dimethyl-4H-isoxazolo[5,4-c]pyrido[3,2-e]azepin-8-amine]	–
500 to 1000	> 1000	> 1000	Cc1noc2c1-c1ccc(=O)[nH]c1C(c1ccc(Cl)cc1)=NC2 [Compound 243, 6-(4-Chlorophenyl)-1-methyl-4H-isoxazolo[5,4-c]pyrido[3,2-e]azepin-8(7H)-one]	–
500 to 1000	> 1000	> 1000	Cc1noc2c1-c1ccc(=O)n(C)c1C(c1ccc(Cl)cc1)=NC2 [Compound 246, 6-(4-Chlorophenyl)-1,7-dimethyl-4H-isoxazolo[5,4-c]pyrido[3,2-e]azepin-8(7H)-one]	–
< 500	< 500	< 500	CCOc1ccc2c(c1)C(c1ccc(Cl)cc1)=N[C@@H](CC(N)=O)c1onc(C)c1-2 [Compound 248]	–
< 500	< 500	500 to 1000	Cc1noc2c1-c1cnc(N3CCCC3)cc1C(c1ccc(Cl)cc1)=NC2 [Compound 255, 6-(4-Chlorophenyl)-1-methyl-8-(pyrrolidin-1-yl)-4H-isoxazolo[5,4-c]pyrido[3,4-e]azepine]	–
> 1000	> 1000	> 1000	Cc1noc2c1-c1cnc(Cl)cc1C(c1ccc(Cl)cc1)=NC2 [Compound 256, 8-Chloro-6-(4-chlorophenyl)-1-methyl-4H-isoxazolo[5,4-c]pyrido[3,4-e]azepine]	–
< 500	500 to 1000	> 1000	Cc1noc2c1-c1ccc(N)nc1C(c1ccc(Cl)cc1)=NC2 [Compound 257, 6-(4-Chlorophenyl)-1-methyl-4H-isoxazolo[5,4-c]pyrido[3,2-e]azepin-8-amine]	–
